Assay results: patent publication US8846876B2, “Compositions containing, methods involving, and uses of non-natural amino acids and polypeptides” (Abrx, Inc., priority 2004, dated 2014)

How the values were obtained:
[1] = system: RS; experiment: RS test
Description: (§1) This example provides results of four tests that were conducted on certain illustrative non-natural amino acids as an aid for predicting their properties for incorporation into non-natural amino acid polypeptides.

[2] = Oxime stability pH 4-8 (testing non-natural amino acids); type: physicochemical
Description: as §1

Structure (SMILES)	RS test [1]	Oxime Stability pH 4-8 [2]
CC(=O)c1ccc(C[C@H](N)C(=O)O)cc1	√	
N[C@@H](Cc1ccc2c(c1)NC(=O)C2=O)C(=O)O		— —
CC(=O)N/N=C/c1ccc(C[C@H](N)C(=O)O)cc1	√	
CC(=O)CC(=O)c1ccc(C[C@H](N)C(=O)O)cc1	Meta- bolized	
